These are literature values, as cited in patent US6017399A, “Method for controlling and removing solid deposits from a surface of a component of a steam generating system” (priority 1998, dated 2000).

For the first series the following is noted: 25° C.
What is called pKa is the negative logarithm of the acid dissociation constant. For the compound `CNC` [Dimethylamine], the pKa entry was “about 10.61”.

The series is the same for the next values; noted with them: 25° C.; Table 4.
For the compound `CCCCNCCCC` [Di-N-Butylamine], the pKa is given as 11.31.
Take `C1CCC2=NCCCN2CC1` [1,5-Diazabicyclo (5,4,0) Unde-5-ane]: the pKa is recorded as 13.40.
In the case of `CC(C)CNCC(C)C` [Diisobutylamine], the pKa is given as 10.82.
With `CNC` [Dimethylamine], the pKa was 10.61.
As to `NCCCCCCCCN` [1,8 Diaminooctane], the pKa is listed as 10.937.
As for `CN(C)C` [Trimethylamine], the pKa is on record as 10.71.
In the case of Dimethylamino-propylamine, the pKa is given as 11.70.
As for `CCCCN` [Mono-N-Butylamine], the pKa is listed as 10.61.
`CCCN(CCC)CCC` [Tri-N-Propylamine]: the pKa was 10.65.
Consider `NCCCCCCN` [1,6 Diaminohexane], for which the pKa is listed as 10.93.
As for `CN` [Monomethylamine], the pKa is given as 10.62.
In the case of `NCCCCCN` [1,5 Diaminopentane], the pKa is 10.915.
On to `CCNC1CCCCC1` [N-Ethylcyclohexylamine], for which the pKa is 12.00.

The series is the same for the next values; noted with them: about 250° C.
As to `CNC` [Dimethylamine], the pKa entry was “about 6.50”.
